Laboratory results as given in article PMC4569384, “[^11C]MADAM Used as a Model for Understanding the Radiometabolism of Diphenyl Sulfide Radioligands for Positron Emission Tomography (PET)” (PLoS ONE, 2015).
Read-outs that look alike come from different tables or passages of the source.

Legend:
[1] = Quantification of MADAM and metabolites in RLM incubations by UHPLC/Q-ToF-MS; assay type: in vitro ADME, rat; details: for Concentration in RLM incubation (in words) / Concentration in RLM incubation: MADAM 10 μM initial; for Concentration in RLM incubation (in words): various incubation times
Method: (§1) MADAM and/or [^11C]MADAM (5–15 MBq) were incubated with HLM and RLM (0.5 mg/mL) at 37°C in 1 mL of 0.05 M potassium phosphate buffer (pH 7.4) containing 5 mM NADPH. Experiments were performed with MADAM concentrations of 1 and 10 μM. The incubation times were the following: […] (RLM experiments); 10, 45 and 90 min (HLM experiments). The incubation was stopped by adding an equal volume of ice-cold acetonitrile. The mixture was then vortexed and centrifuged and the supernatant was removed, evaporated. The residue was reconstituted in 150 μL mobile phase before being analyzed by radio-HPLC and UHPLC/Q-ToF-MS as described below. Control incubations in the absence of microsomes, MADAM or NADPH were also performed to assure that the observed peaks corresponded to MADAM metabolites.
(§2) The analyses were performed on a Waters (Milford, MA, USA) Acquity Ultra Performance LC^TM binary solvent manager coupled to a photodiode array detector and Waters (Micromass UK Limited, Manchester, UK) Q-Tof Premier. All the samples (10 μL) were injected onto a Waters Ethylene Bridged Hybrid (BEH) C18 column (2.1 x 50 mm, 1.7 μm) and eluted by a 5 min linear gradient starting from 100% water containing 0.1% formic acid and ending with 30% acetonitrile containing 0.1% formic acid at a flow rate of 0.5 mL/min. Positive electrospray ionization (+ESI) in V-mode with an extended dynamic range was used under the following conditions: capillary 3.5 kV, sampling cone 25 V, extraction cone 4.5 V, source temperature 100°C and desolvation temperature 380°C. Two scan functions, MS and MS^E, in the mass range of 100–1000 Da, were performed simultaneously. The collision energy was set to 5 eV during the MS acquisition and it was ramped from 10 to 35 eV during the MS^E acquisition. MetaboLynx^TM (Waters, Milford, MA, USA) was used to aid metabolite identification.
The parent compound MADAM was present at a concentration of 1.83 ± 0.20 μM at 10 min and from 30 min the concentration was very low (0.17 to 0.09 μM), indicating a fast metabolism in RLM. […] However, the concentration of the latter declined to 2.08 ± 0.3 μM to at 10 min and to 0.72 ± 0.31 at 60 min. The quantification in HLM experiments was not undertaken after 120 min.

[2] = Quantification of MADAM and metabolites in HLM incubations by UHPLC/Q-ToF-MS; assay type: in vitro ADME, human; details: for Concentration in HLM incubation: MADAM 10 μM initial
Method: as §1, §2
In the present study, we further aimed to estimate the concentration of the ligand (MADAM) as well as that of the identified metabolites, among them NHMADAM, SOMADAM and NHSOMADAM, for which reference compounds were available. UHPLC/Q-ToF-MS instrumentation was employed to quantify these compounds in RLM and HLM incubations using AFM as the internal standard. In HLM incubations, the concentration of MADAM decreased from 10 μM to 7.76 ± 0.5 μM at 30 min and approximately half of MADAM (5.1 ± 0.5 μM) was still present after an incubation time of 120 min. […] Negligible amounts of the other two metabolites, SOMADAM and NHSOMADAM, were detected at these times. The concentration of SOMADAM ranged from 0.12 ± 0.02 μM to 0.15 ± 0.01 μM over time. A very slight increase in the concentration of NHSOMADAM was observed, from 0.12 ± 0.01 μM to 0.32 ± 0.03 μM at 30 min and 120 min incubation times, respectively.

[3] = Incubation of [^11C]MADAM with human liver microsomes, radio-HPLC; assay type: in vitro ADME; details: for Percentage of unchanged [^11C]MADAM: HLM 0.5 mg/mL, NADPH, no-carrier-added; for Intact [^11C]MADAM (%): HLM, t = 45 min
Method: as §1
(§3) Reversed phase HPLC was used to determine the percentages of radioactivity in microsomal incubation samples that corresponded to unchanged radioligand and its radiometabolites. The HPLC system consists of a Merck Hitachi D-7000 pump, an interface module, a Merck Hitachi L-7400 UV absorbance detector (254 nm) in series with a Packard Radiomatic 150TR radiodetector equipped with a 600 μL flow cell, and a Rheodyne 7125 manual injector. A Waters μ-Bondapak C18 column (7.8 x 300 mm, 10 μm) with acetonitrile (A) and ammonium formate 0.1M (B) as the mobile phase was used with a flow rate of 6.0 mL/min, according to the following gradient: 0–4.5 min, (A/B) 10/90-15/85; 4.5–5.0 min, (A/B) 15/85-20/80; 5.0–5.5 min (A/B) 20/80-45/55; 5.5–9.0 min (A/B) 45/55; 9.0–10 min (A/B) 45/55-70/30; 10.0–20.0 min (A/B) 70/30. The detected peaks were integrated and their areas were expressed as a percentage of the sum of areas of all radioactive compounds present (decay-corrected).

[4] = design: method as in PMID 24857865; details: rats euthanized 15 and 30 min post injection; cited from earlier work
[5] = Radio-HPLC of rat urine after intravenous perfusion of [^11C]MADAM/MADAM; assay type: in vivo; details: for Percentage of intact [^11C]MADAM in urine: no carrier added
Method: as §3
All animal handling and experiments were carried out in accordance with the guidelines of Karolinska Institutet and were approved by the local laboratory animal ethics committee (N 363/05 and N 373/07). The rats were housed under standard laboratory conditions with free access to laboratory food and water ad libitum. Male Sprague-Dawley rats were anesthetized with isoflurane, via an E-Z anesthesia vaporizer (5% initially and then 1.5% to maintain anesthesia, blended with 7:3 air: O2 and delivered through a Microflex non-rebreathing mask from Euthanex Corporation, Palmer, PA. The rats were placed on a heating pad (37°C) while [^11C]MADAM (52–76 MBq) and/or MADAM (25 μg to 1 mg) as a perfusion were administered intravenously; the rats were sacrificed at various time points after the administration (15, 30 and 60 min). Urine samples were collected at each time point and acetonitrile (400 μL) was added. After centrifugation at 3000g for 4 min, the supernatant was injected into the radio-HPLC (section 2.3). The radioactivity of the precipitate was measured to quantify the efficiency of the acetonitrile extraction.

[6] = Incubation of [^11C]MADAM with rat liver microsomes, radio-HPLC; assay type: in vitro ADME; details: for Percentage of unchanged [^11C]MADAM: RLM 0.5 mg/mL, NADPH, no-carrier-added
Method: as §1, §3

[7] = design: method as in PMID 16157534; details: 50 min after injection; cited from earlier work
[8] = design: method as in PMID 17096093, PMID 18800204; details: cited from earlier work
[9] = design: method as in earlier work; details: human, 60 minutes after injection, cited from earlier work
[10] = design: method as in PMID 24857865; details: cited from earlier work; for Fraction of total radioactivity in plasma: macaque plasma

For `Cc1ccc(S(=O)(=O)c2ccccc2CN(C)C)c(N)c1` [SO2MADAM], the “Detection as metabolite of MADAM in microsomal preparations” value ([1]; RLM, MADAM 10 μM) was “not detected” and the “Detection as metabolite of MADAM in microsomal preparations” value ([2]; HLM, MADAM 10 μM) was “not detected”.
With `Cc1ccc(Sc2ccccc2CN(C)[11CH3])c(N)c1` [[^11C]MADAM] the “Percentage of unchanged [^11C]MADAM” value ([3]; incubation 10 min) was 51 ± 4%, the “Percentage of unchanged [^11C]MADAM” value ([3]; incubation 10 min, listed as [ ^11 C]MADAM) was 51 ± 4% and the “Percentage of unchanged [^11C]MADAM” value ([3]; incubation 45 min) was 35 ± 1%. The “Percentage of unchanged [^11C]MADAM” value ([3]; incubation 45 min, listed as [ ^11 C]MADAM) was 35 ± 1%, the “Percentage of unchanged [^11C]MADAM” value ([3]; incubation 90 min) was 16 ± 1% and the “Percentage of unchanged [^11C]MADAM” value ([3]; incubation 90 min, listed as [ ^11 C]MADAM) was 16 ± 1%. The “Radiometabolites in control incubations” value ([3]; HLM experiments, control without either NADPH or microsomes) was “No radiometabolites were detected”, the “Intact [^11C]MADAM (%)” value ([3]; carrier MADAM 1 μM) was 58 ± 2% and the “Intact [^11C]MADAM (%)” value ([3]; carrier MADAM 10 μM) was 80 ± 5%. For the same compound, the “Radioactive species in rat brain by radio-HPLC” value [4] was “only one radioactive peak corresponding to [^11C]MADAM”, the “Radiometabolites by radio-HPLC or UHPLC/Q-ToF-MS” value ([5]; high dose of MADAM approximately 1 mg perfused) was “no radiometabolites were detected” and the “Percentage of unchanged [^11C]MADAM in urine” value ([5]; i.v. perfusion 15 min, carrier MADAM 25 μg) was 16%. The Radiometabolites in urine ([5]; i.v. perfusion 15 min, carrier MADAM 125 μg) was “no radiometabolites were observed”, the “Percentage of intact [^11C]MADAM in urine” value (shortened to “Percentage of intact”) ([5]; i.v. perfusion 15 min) was 9% and the “Percentage of intact” value ([5]; i.v. perfusion 30 min) was “undetectable”. The “Percentage of intact” value ([5]; i.v. perfusion 60 min) was “undetectable”, the Radiometabolites in urine ([5]; more than 25 μg carrier, perfusion time 30 and 60 min) was “no radiometabolites were detected” and the “Percentage of unchanged [^11C]MADAM” value ([6]; incubation 1 min) was 3.3 ± 1%. For the same compound, the “Percentage of unchanged [^11C]MADAM” value ([6]; incubation 1 min, listed as [ ^11 C]MADAM) was 3.3 ± 1% ^1, the “Percentage of unchanged [^11C]MADAM” value ([6]; incubation 4 min) was “no [^11C]MADAM was detected” and the “Radiometabolites in control incubations” value ([6]; RLM experiments, control without either NADPH or microsomes) was “No radiometabolites were detected”. The “Intact [^11C]MADAM (%)” value ([6]; RLM, t = 1 min, carrier MADAM 10 μM) was 78 ± 4% and the “Percentage of unchanged radioligand in human plasma” value [7] was “approximately 40%”.
With `Cc1ccc([S+]([O-])c2ccccc2CN(C)C)c(N)c1` (stereo not shown) [SOMADAM] the “Concentration in RLM incubation (in words)” value [1] was “very low concentrations”.
In the case of `Cc1ccc(C2CC3CCC(C2C(=O)O[11CH3])N3CC=CI)cc1` (stereo not shown) [[^11C]PE2I], the “Effect of addition of carrier on radiometabolic profile” value [8] is given as “not affect the radiometabolic profile”.
In the case of `[11CH3]N1CCc2cc(Cl)c(O)cc2C2c3ccccc3CCC21` (stereo not shown) [[^11C]SCH 39166], the “Percentage unchanged in plasma” value ([9]; high specific radioactivity) is given as “approximately 30%” and the “Percentage unchanged in plasma” value ([9]; low specific radioactivity) is given as about 15%.
For `CNCc1ccccc1[S+]([O-])c1ccc(C)cc1N` (stereo not shown) [NHSOMADAM], the “Concentration in RLM incubation (in words)” value [1] was “very low concentrations”, the “Concentration in HLM incubation” value ([2]; incubation 30 min) was 120 ± 10 nM and the “Concentration in HLM incubation” value ([2]; incubation 120 min) was 320 ± 30 nM.
In the case of `Cc1ccc(S(=O)(=O)c2ccccc2CN(C)[11CH3])c(N)c1` [[^11C]SO2MADAM], the “Detection in plasma as further oxidation product” value ([10]; macaque plasma after injection of [^11C]MADAM) is given as “No further oxidation to [^11C]SO2MADAM was detected”.
In the case of `Cc1ccc([S+]([O-])c2ccccc2CN(C)[11CH3])c(N)c1` (stereo not shown) [[^11C]SOMADAM], the “Fraction of total radioactivity in plasma” value ([10]; 4 min after injection of [^11C]MADAM) is listed as 5% and the “Fraction of total radioactivity in plasma” value ([10]; 15 min after injection of [^11C]MADAM) is listed as 1%.
For `[11CH3]Oc1ccccc1O[C@@H](c1ccccc1)[C@@H]1CNCCO1` [(S,S)-[^11C]MeNER], the “Effect of addition of carrier on radiometabolic profile” value [8] is given as “not affect the radiometabolic profile”.
In the case of `CNCc1ccccc1Sc1ccc(C)cc1N` [NHMADAM], the “Concentration in RLM incubation” value ([1]; incubation 10 min) is reported as 2080 ± 300 nM, the “Concentration in RLM incubation” value ([1]; incubation 60 min) is reported as 720 ± 310 nM and the “Concentration in HLM incubation” value ([2]; incubation 30 min) is reported as 2080 ± 400 nM. The “Concentration in HLM incubation” value ([2]; incubation 120 min) was 2890 ± 400 nM.
With `Cc1ccc(Sc2ccccc2CN(C)C)c(N)c1` [MADAM] the “Concentration in RLM incubation” value ([1]; incubation 10 min) was 1830 ± 200 nM, the “Concentration in HLM incubation” value ([2]; incubation 30 min) was 7760 ± 500 nM and the “Concentration in HLM incubation” value ([2]; incubation 120 min) was 5100 ± 500 nM.
